Experiment: gradient 5% acetonitrile 3 min, to 50% in 2 min, to 85% in 15 min, held 3 min, 100 µL/min
Conditions: column: Zorbax Extend-C18 2.1 x 50 mm; eluents: water / acetonitrile, 0.1% formic acid
In short: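 In both positive and negative ionization mode, a quadrupole time-of-flight mass spectrometer coupled to HPLC analyzed pure standards run in mixtures of ~100 molecules. The Zorbax Extend-C18 column (2.1 × 50 mm, 1.8 μm) was operated at 100 μL/min with water and acetonitrile, each containing 0.1% formic acid. The dead volume was 40 μL and the dwell volume 900 μL. Retention time came from adduct peaks that were computationally picked and individually inspected by hand.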

Compound | RP-LC retention time [s]
COc1ccc(N2CC(c3nc(-c4cccnc4)no3)CC2=O)cc1OC (stereo not given) | 665
Cc1ccc(Nc2c(-c3ccc(N(C)C)cc3)nc3cnccn23)cc1 | 855
COc1ccc(-c2nnc(N3CCC(C(=O)NC4CCCCCC4)CC3)o2)cc1 | 881
COc1ccc(CCN2CC(=O)N3Cc4[nH]c5ccccc5c4C[C@H]3C2=O)cc1OC | 761
CCCNC(=O)c1nc2ccccn2c1-c1ccc(F)cc1 | 730
CCOC(=O)c1c(C)[nH]c(CCC(=O)NCCc2ccco2)c1C | 788
CCN(CC)CC(C)(C)C(=O)/C=C/c1ccc(C)cc1 | 684
CCn1cc(CN2CCCC(Cn3cc(COC)nn3)C2)c2ccccc21 (stereo not given) | 565
CCOc1ccc(CNC(=O)c2ccc3c(c2)nc2n3CCN(C3CCCCC3)C2=O)cc1 | 830
CCC1CN2C=NC(N3CCN(C(=O)c4ccc5c(c4)OCO5)CC3)=CC2=N1 (stereo not given) | 609
Cc1ccccc1OCC(O)CN1CCN(c2ccc(Cl)cc2)CC1 (stereo not given) | 787
O=C(NC1CCCC1)N1CCN(Cc2nc3cc(-c4ccccc4)ccc3o2)CC1 | 787
O=C1NCCOCCCN(C(=O)Nc2ccc3c(c2)OCCO3)[C@H]2CCCC[C@@H]12 | 665
COC1CCOC2(CCN(C(=O)c3cccs3)CC2)C1 (stereo not given) | 703
CCc1cc(N2CCN(C(=O)COc3ccc(OC)cc3)CC2)nc2nnc(C)n12 | 613
Cc1nc2n(c(=O)c1C)CCN2CC(=O)NCc1cccs1 | 619
CCc1ccc(OCC(=O)Nc2nnc(C3CC(=O)N(c4ccc(Cl)cc4)C3)o2)cc1 (stereo not given) | 888
O=C1c2ccccc2-c2onc3c(N4CCN(c5ccccn5)CC4)cc(N4CCCCC4)c1c23 | 600
CCCNC(=O)N1CCCC1c1nc(-c2ccccc2C)no1 (stereo not given) | 863
CCn1nc(C)c(CCNC(=O)Cn2c3ccccc3c3cnn(C)c(=O)c32)c1C | 627

Compound | RP-LC retention time [s]
Cc1ccc(NS(=O)(=O)c2n[nH]c(C)c2C(=O)NCCc2cccs2)cc1 | 912
COc1ccc2nc(N3CCC(C(=O)N4CCN(c5ccccn5)CC4)CC3)sc2c1 | 578
COC(=O)c1ncn2c1C(=O)N(c1ccc(F)cc1C)C(C)(C(=O)NCc1ccccc1)C2 (stereo not given) | 708
CCc1nc2c(c(=O)n1CC(=O)NCc1ccc(C)c(C)c1)CN(Cc1ccccc1)CC2 | 694
CN(C)c1cccc(C(=O)NC2CCN(c3cc(-c4ccc(F)cc4)[nH]n3)C2)c1 (stereo not given) | 684
Cc1ccc(S(=O)(=O)N2CCCC(CCC(=O)N3CCOCC3)C2)cc1 (stereo not given) | 814
Cn1cc(CN2CCC(C(=O)NC3CCN(Cc4ccccc4)CC3)CC2)c2cc(Cl)ccc21 | 593
Cc1ccc(CNC(=O)C2(C)CCN(S(=O)(=O)c3ccccc3)CC2)cc1 | 925
Cc1c(Cl)cccc1S(=O)(=O)N1CCCN(c2ccc(=O)n(-c3ccccc3)n2)CC1 | 944
CCc1ccc(C(C)NC(=O)C2CCN(c3nnc(-c4ccc(OC)cc4)o3)CC2)cc1 (stereo not given) | 943
O=C(N[C@H]1C[C@@H]2C[C@H]1CN2S(=O)(=O)c1ccc(C(F)(F)F)cc1)c1cccnc1 | 794
O=C(Nc1ccc2c(c1)OCCO2)C1CCCN(S(=O)(=O)Cc2ccc(F)cc2)C1 (stereo not given) | 905
CCC1CN(C(=O)N2CCC(C(=O)NCCN3CCN(CC)CC3)CC2)c2ccccc2O1 (stereo not given) | 617
Cc1nc(C)c(-c2ccc(=O)n(CCNC(=O)Cn3cnc4ccccc43)n2)s1 | 552
Cc1nc(-c2csc(S(=O)(=O)N3CCCC(C(=O)Nc4ccc(Cl)cc4F)C3)c2)no1 (stereo not given) | 1050
CCc1noc(NC(C)=O)c1-c1ccc(OC)c(S(=O)(=O)Nc2ccc(C#N)cc2)c1 | 735
CNS(=O)(=O)c1cccnc1Nc1ccccc1 | 865
COc1cccc2sc(N3CCCCC3)nc12 | 821
O=C(NCc1ccccn1)C1CCCN(c2ccc(Sc3ccc(Br)cc3)nn2)C1 (stereo not given) | 702
Cc1nn(Cc2ccc(C(=O)N3CCN(c4ccccn4)CC3)cc2)c(C)c1S(=O)(=O)N(C)C | 606

Compound | RP-LC retention time [s]
CC(=O)Nc1nsc(N2CCC(C(=O)NCc3ccccc3F)CC2)n1 | 659
CN1CCCn2cc(S(=O)(=O)Nc3cc(F)cc(F)c3)cc2C1=O | 718
Cc1cccc(C)c1NC(=O)Cn1cnc2nc3c(cc2c1=O)CC(C)CC3 (stereo not given) | 758
CCCCCNC(=O)c1sc2ncccc2c1-n1cccc1 | 1080
CC1CCN(C(=O)C2CCN(c3ccc4nnc(-c5ccccc5)n4n3)CC2)CC1 | 902
COc1ccc(N2CCN(S(=O)(=O)c3cc(-c4nc(C(C)C)cs4)cs3)CC2)cc1 | 1250
Cc1ccc(-c2nc(NCCC3=CCCCC3)c3ccccc3n2)cc1 | 974
CCOC(=O)c1[nH]c(C)c(CCC(=O)N2CCC(C(=O)NCc3ccc(Cl)cc3)CC2)c1C | 828
Cc1nc(C)c(-c2ccc(=O)n(CCNC(=O)c3ccno3)n2)s1 | 585
CCc1ccc(NC(=O)Cn2c(N)nc(CC)cc2=O)cc1 | 596
Cc1nc(CC(=O)Nc2nc(-c3cccc(Cl)c3)c(C)s2)cs1 | 994
O=C(c1ccccc1)c1ccc(-c2ccc(O)cc2)cc1 | 1000
N#CC(C#N)=Cc1ccc(O)c(O)c1 | 841
CC(C)c1ccc(NC(=O)Cn2cnc3c(sc4nc(-c5ccccc5)ccc43)c2=O)cc1 | 1180
CCc1c(C(=O)O)nnn1-c1ccc(Cl)c(C)c1 | 809
CCC(CO)NC(=O)C(=O)Nc1ccccc1SC (stereo not given) | 710
Cc1ccc(CNC(=O)c2[nH]c(C)c(S(=O)(=O)N3CCCC3)c2C)cc1 | 851
COc1ccc(C)cc1NC(=O)N1CCC(c2nc(C(=O)N3CCCC3)c(C)o2)CC1 | 865
O=C(c1cccc(Br)c1)N1CCC2(C1)C(=O)Nc1ccccc12 (stereo not given) | 773
Cn1nc(-c2nnc(-c3ccc(F)cc3)o2)c2c1CCN(S(=O)(=O)c1ccccc1Cl)C2 | 990

The next lines start with the values.

RP-LC retention time [s] | Compound
1050 | COc1ccc(NC(=O)C2CCCN(c3nccnc3Oc3ccccc3)C2)cc1Cl (stereo not given)
814 | CC(C)C(=O)Nc1cnc(-c2ccccc2)nc1
730 | Cc1ccc2c(c1)N(C(=O)Cn1nc3c4ccccc4ncn3c1=O)CCO2
1130 | COc1ccc2c(c1)-c1nc(NC(=O)c3ccccc3C)sc1CC2
1060 | O=C(CCS(=O)(=O)c1ccccc1)Nc1nc(-c2cc(Cl)sc2Cl)cs1
714 | O=C(NC1CCN(c2cc(-c3ccc(F)cc3)[nH]n2)C1)c1ccc2cc[nH]c2c1 (stereo not given)
592 | Cc1cc(Cl)ccc1S(=O)(=O)NCCn1c(C)cnc1C1CCC1
942 | CCC(Oc1ccc(-c2cnc3ccccc3n2)cc1)C(=O)N1CCN(c2ncccn2)CC1 (stereo not given)
662 | O=C(Nc1ccc2c(c1)OCCO2)C1CCN(c2cc(N3CCSCC3)ncn2)CC1
1120 | Cc1ccccc1-n1c(=O)c2sccc2n(Cc2nc(-c3ccc(Br)cc3)no2)c1=O
986 | CCc1noc(-c2nc(-c3ccccc3OC)no2)n1
653 | CC(C)c1cnn2c(NCc3ccccc3)cc(NCCCCCCN)nc12
689 | COc1cccc2c(Nc3ccccc3C)cc(C(=O)N3CCSCC3)nc12
730 | CCOC(=O)c1ccc(NC(=O)COc2ccc(-c3nnc4n3CCCC4)cc2)cc1
654 | COc1ccc(F)cc1S(=O)(=O)N1CCn2c(nn(C)c2=O)C1
730 | Cc1nnc(N2CCC(C(=O)NCCc3c[nH]c4ccccc34)CC2)c2nn(-c3ccccc3)c(C)c12
713 | Cc1cc(Cl)ccc1S(=O)(=O)NCC1CN(C)CC12CCCCC2 (stereo not given)
560 | O=C(CCC1CCCN(c2cc(NC3CC3)ncn2)C1)NCc1cccnc1 (stereo not given)
640 | CCSc1ccccc1C(=O)NCC1(CO)CC1
702 | O=C(NCc1ccc(F)cc1)C(=O)NCC1OCCN1C(=O)c1cccs1 (stereo not given)
1090 | CC(C)c1cccc(NC(=O)c2cn(C)nc2S(=O)(=O)N2CCSCC2)c1
1060 | Clc1ccc(-c2nc3cnccn3c2Nc2cccc(Cl)c2)cc1
806 | Cc1cc(Nc2ccc(Cl)cc2C)n2ncnc2n1
1020 | Cc1noc(C2CN(CCCc3ccccc3)CC23CCCC3)n1 (stereo not given)
717 | Cc1c(CNCC2CCCO2)c(C(=O)O)c(C)n1Cc1cccc(Cl)c1 (stereo not given)
1130 | COc1ccc(CN2C=C(C(=O)OCc3nc(-c4cccc(OC)c4)no3)C(C)=NS2(=O)=O)cc1
1040 | CCOc1ccccc1N1CCN(C(=O)c2sc3ncccc3c2-n2cccc2)CC1
894 | CC(C)(C)NC(=O)N1CCCC1c1noc(COc2ccc(F)cc2)n1 (stereo not given)
1100 | NC(=O)c1c(NC(=O)CSc2ncnc3sc4c(c23)CCC4)sc2c1CCC2
661 | COCC(=O)NC1CCC12CCN(C(=O)C1CCC1)CC2 (stereo not given)
